{"source": "patent US11441168B2", "about": "“Method for assaying the activity of spermidine/spermine N1-acetyltransferase” (BioMark Technologies Inc., priority 2011, dated 2022)", "key": {"[1]": {"biological_target": "spermidine/spermine N1-acetyltransferase (SSAT) (Rattus norvegicus, UniProt Q6P9U6)", "sequence (Q6P9U6 1-171)": "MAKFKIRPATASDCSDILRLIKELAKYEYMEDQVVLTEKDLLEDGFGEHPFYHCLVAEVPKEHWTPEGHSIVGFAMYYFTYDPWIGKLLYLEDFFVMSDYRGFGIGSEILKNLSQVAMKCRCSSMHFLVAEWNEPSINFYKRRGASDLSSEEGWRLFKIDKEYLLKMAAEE", "experiment": "SSAT-mediated N-acetylation enzyme kinetics in plateable cryopreserved primary rat hepatocytes (LC/MS/MS, Lineweaver-Burk)", "conditions": "for Vmax of N-acetylation by SSAT: confirmatory experiment, primary rat hepatocytes, 24-hour incubation, Lineweaver-Burk estimate", "experimental": "(§1) Refer to the table below for the testing concentrations. Metabolites collected from the incubation reactions were measured by LC/MS/MS analysis.\nImmediately before use, cryopreserved primary rat hepatocytes were thawed in a water bath at 37° C. and resuspended in pre-warmed InVitroGRO™ CP Rat Medium. […] Hepatocyte concentrations were adjusted by addition with InVitroGRO™ CP Rat Medium to achieve the target plating concentration of 0.70×10^6 cells/m L. Aliquots of hepatocytes were plated (0.5 mL/well) in 24-well CellAffix culture plates and the plates were placed in an incubator maintained at 37° C. with a highly humidified atmosphere of 95% air and 5% […] for 4 hours to allow hepatocyte attachment before dosing with the selective substrate solutions.\n(§2) Following cell attachment, the culture medium was aspirated from each well, and replaced with pre-warmed InVitroGRO™ HI Rat Medium (added with Torpedo antibiotic mix in the confirmatory experiment) and the substrate solution at the appropriate concentration. The treated cells were returned to incubation for 24 hours. Upon completion of incubation, the medium from each well was collected into 1.7-mL vials containing ice-cold methanol and stored at nominal −80° C. (−72° C. to −88° C.) prior to LC/MS/MS analysis. Hepatocytes remaining in the wells were subjected to MTT assay to evaluate the cytotoxic potential of the substrates at the testing concentrations.\nFour LC/MS/MS assays were employed to individually quantitate the four metabolites in the incubation samples.\nEnzyme kinetics was evaluated based on the enzymatic conversion of the substrate at a range of testing concentrations into their N-acetylated metabolites over a 24-hour incubation reaction time course. Metabolite formation from different testing substrate concentrations after incubation was measured by LC/MS/MS and the resulting data constructed into Lineweaver-Burk plots of the double reciprocal of reaction velocity against substrate concentrations to estimate the Km and Vmax values of SSAT-mediated N-acetylation of each substrate tested."}, "[2]": {"system": "rat hepatocytes", "conditions": "for Substrate concentration resulting in extensive cytotoxicity / Substrate concentration that resulted in extensive cytotoxicity: rat, 24 h", "experimental": "as §1, §2\nUpon collection of the reaction medium, an aliquot of 0.5 mg/mL MTT in KHB was added immediately to the remaining hepatocytes in each well and then incubated for approximately 30 minutes. Following incubation, the medium was replaced with dimethyl sulfoxide (DMSO) to dissolve the formazan. An aliquot from each well was measured for absorbance at 540 nm on a 96-well flat bottom plate with a microplate reader and DMSO for background absorbance correction.\nThe cytotoxic potential of the substrates to rat hepatocytes was evaluated by MTT cytotoxicity assays. The assays were performed in both the pilot and the confirmatory experiments."}, "[3]": {"biological_target": "SSAT in cytosolic liver fraction of transgenic mice (Mus musculus, UniProt P48026)", "sequence (P48026 whole entry)": "as the sequence (Q6P9U6 1-171) above, with V35I, L42Q counted along it", "conditions": "read-out: Km of spermidine acetylation (literature reference); cited from earlier work"}}}
{"compound": "CC(N)C12CC3CC(CC(C3)C1)C2", "note": "(centres unmarked) [rimantadine]", "values": [{"measurement": "Vmax of N-acetylation by SSAT", "setting": "[1]", "result": 0.364, "unit": "pmol/min/million cells"}, {"measurement": "Km at 24 h", "setting": "[1]; rat", "result": 1840, "unit": "µM"}, {"measurement": "Cytotoxicity to rat hepatocytes (in words)", "setting": "[2]", "result": "Significant cytotoxicity"}, {"measurement": "Substrate concentration resulting in extensive cytotoxicity", "setting": "[2]", "result": "~220", "unit": "µM"}, {"measurement": "Substrate concentration that resulted in extensive cytotoxicity", "setting": "[2]", "result": "~280", "unit": "µM"}]}
{"compound": "Cc1cccc(C)c1NC(=O)C(C)N", "note": "(centres unmarked) [tocainide]", "values": [{"measurement": "Vmax of N-acetylation by SSAT", "setting": "[1]", "result": 0.617, "unit": "pmol/min/million cells"}, {"measurement": "Cytotoxicity to rat hepatocytes (in words)", "setting": "[2]", "result": "No cytotoxicity"}]}
{"compound": "NC12CC3CC(CC(C3)C1)C2", "note": "[amantadine]", "values": [{"measurement": "Vmax of N-acetylation by SSAT", "setting": "[1]", "result": 0.00197, "unit": "pmol/min/million cells"}, {"measurement": "Cytotoxicity to rat hepatocytes (in words)", "setting": "[2]", "result": "Significant cytotoxicity"}, {"measurement": "Substrate concentration resulting in extensive cytotoxicity", "setting": "[2]", "result": "approximately 1140 μM"}, {"measurement": "Substrate concentration that resulted in extensive cytotoxicity", "setting": "[2]", "result": "approximately 1170 μM"}]}
{"compound": "NCCCCNCCCN", "note": "[spermidine]", "values": [{"measurement": "Vmax of N-acetylation by SSAT", "setting": "[1]", "result": 7.21, "unit": "pmol/min/million cells"}, {"measurement": "Cytotoxicity to rat hepatocytes (in words)", "setting": "[2]", "result": "No cytotoxicity"}, {"measurement": "Km", "setting": "[3]", "result": "267 ± 46", "unit": "µM"}]}
